What was measured:
[1] = target: T1, Protein deacetylase HDAC6 (Homo sapiens, UniProt Q9UBN7)
T1 sequence (Q9UBN7 whole entry): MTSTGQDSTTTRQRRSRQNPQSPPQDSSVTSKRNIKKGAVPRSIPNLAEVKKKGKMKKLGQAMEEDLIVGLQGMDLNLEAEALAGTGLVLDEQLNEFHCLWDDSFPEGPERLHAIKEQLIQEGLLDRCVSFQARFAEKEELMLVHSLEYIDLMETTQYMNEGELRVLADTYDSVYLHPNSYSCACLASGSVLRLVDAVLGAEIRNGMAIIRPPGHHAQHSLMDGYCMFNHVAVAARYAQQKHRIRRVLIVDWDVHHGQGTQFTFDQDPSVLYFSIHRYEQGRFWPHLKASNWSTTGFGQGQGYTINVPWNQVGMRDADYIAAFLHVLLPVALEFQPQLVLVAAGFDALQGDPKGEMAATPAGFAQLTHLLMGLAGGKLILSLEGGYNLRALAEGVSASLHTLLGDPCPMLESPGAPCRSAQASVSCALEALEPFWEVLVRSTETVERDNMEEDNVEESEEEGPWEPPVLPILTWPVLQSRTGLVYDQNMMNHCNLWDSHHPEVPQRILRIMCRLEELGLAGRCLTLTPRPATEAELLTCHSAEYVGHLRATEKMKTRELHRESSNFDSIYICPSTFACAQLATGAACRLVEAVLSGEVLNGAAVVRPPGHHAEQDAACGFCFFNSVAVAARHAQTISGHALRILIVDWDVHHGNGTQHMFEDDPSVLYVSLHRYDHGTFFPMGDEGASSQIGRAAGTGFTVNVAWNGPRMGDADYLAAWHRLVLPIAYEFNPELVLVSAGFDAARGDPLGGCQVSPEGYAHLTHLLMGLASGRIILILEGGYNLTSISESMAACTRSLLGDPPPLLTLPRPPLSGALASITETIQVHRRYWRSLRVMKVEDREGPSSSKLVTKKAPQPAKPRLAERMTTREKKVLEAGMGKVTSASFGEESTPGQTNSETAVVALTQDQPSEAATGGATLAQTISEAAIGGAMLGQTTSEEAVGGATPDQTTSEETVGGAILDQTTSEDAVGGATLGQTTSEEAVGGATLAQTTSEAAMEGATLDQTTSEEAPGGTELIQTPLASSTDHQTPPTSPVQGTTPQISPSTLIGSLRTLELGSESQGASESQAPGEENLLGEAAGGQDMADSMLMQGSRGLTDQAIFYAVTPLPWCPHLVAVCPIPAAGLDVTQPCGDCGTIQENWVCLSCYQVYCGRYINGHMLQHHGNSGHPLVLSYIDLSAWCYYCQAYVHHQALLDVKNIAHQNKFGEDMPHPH

Histone deacetylase 1 = Histone deacetylase 1 (Homo sapiens, UniProt Q13547)
Sequence of Histone deacetylase 1 (Q13547 whole entry): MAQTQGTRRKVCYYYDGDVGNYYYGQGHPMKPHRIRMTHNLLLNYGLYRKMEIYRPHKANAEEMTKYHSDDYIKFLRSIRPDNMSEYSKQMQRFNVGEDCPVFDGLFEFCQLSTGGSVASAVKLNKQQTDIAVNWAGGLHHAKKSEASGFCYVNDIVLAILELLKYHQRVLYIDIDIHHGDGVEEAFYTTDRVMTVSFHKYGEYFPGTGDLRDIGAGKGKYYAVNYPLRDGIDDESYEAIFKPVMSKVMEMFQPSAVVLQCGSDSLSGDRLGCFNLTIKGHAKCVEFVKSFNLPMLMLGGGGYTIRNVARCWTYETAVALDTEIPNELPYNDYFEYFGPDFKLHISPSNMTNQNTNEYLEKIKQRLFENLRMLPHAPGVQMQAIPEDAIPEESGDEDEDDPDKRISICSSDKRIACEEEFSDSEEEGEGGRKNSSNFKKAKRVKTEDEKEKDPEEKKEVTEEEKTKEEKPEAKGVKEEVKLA

| SMILES | IC50 [1] [µM] | IC50 (Histone deacetylase 1) [µM] |
| --- | --- | --- |
| CCCCN(Cc1ccc(C(=O)NO)cc1)C(=O)Nc1cccc(N(C)C)c1 | 0.00612 | 0.604 |
| O=C(NCc1ccc(C(=O)NO)cc1)Nc1ccc(CO)cc1 | 0.0083 | 1.06 |

— ChEMBL document CHEMBL5726379, “Selective histone deactylase 6 inhibitors” (2017)
